Data: US7459453B2, “Pyridazin-3(2H)-one derivatives as PDE4 inhibitors” (Laboratorios Almirall, S.A., priority 2002, dated 2008)
pIC50: −log10 of the molar value.

Tested on: PDE4
Test: PDE4 Assay Procedure ([3H]-cAMP SPA)
Assay type: biochemical
Conditions: 15 nM [3H]-cAMP, SPA beads, 1 hour at room temperature; compounds tested from 10 μM to 10 pM
Procedure: Compounds to be tested were resuspended in DMSO at a stock concentration of 1 mM. The compounds were tested at different concentrations varying from 10 μM to 10 pM to calculate an IC50. These dilutions were done in 96-well plates. In some cases, plates containing diluted compounds were frozen before being assayed. In these cases, the plates were thawed at room temperature and stirred for 15 minutes.
Ten microliters of the diluted compounds were poured into a “low binding” assay plate. Eighty microliters of reaction mixture containing 50 mM Tris pH 7.5, 8.3 mM MgCl2, 1.7 mM EGTA, and 15 nM [3H]-cAMP were added to each well. The reaction was initiated by adding ten microliters of a solution containing PDE4. The plate was then incubated under stirring for 1 hour at room temperature. After incubation the reaction was stopped with 50 microliters of SPA beads, and the reaction was allowed to incubate for another 20 minutes at room temperatures before measuring radioactivity using standard instrumentation.
The reaction mixture was prepared by adding 90 ml of H2O to 10 ml of 10× assay buffer (500 mM Tris pH 7.5, 83 mM MgCl2, 17 mM EGTA), and 40 microliters 1 μCi/μL [3H]-cAMP. SPA beads solution was prepared by adding 500 mg to […] H2O for a final concentration of 20 mg/ml beads and 18 mM zinc sulphate.

CCn1nc(-c2ccccc2)c(C(C)=O)c(Nc2cccc(F)c2)c1=O [Example 1, 5-Acetyl-2-ethyl-4-[(3-fluorophenyl)amino]-6-phenylpyridazin-3(2H)-one]
pIC50: 8.11

CCn1nc(-c2ccccc2)c(C(C)=O)c(Nc2cccc3ccccc23)c1=O [Example 8, 5-Acetyl-2-ethyl-4-(1-naphthylamino)-6-phenylpyridazin-3(2H)-one]
pIC50: 8.70

CCn1nc(-c2ccccc2)c(C(C)=O)c(Nc2ccccc2Cl)c1=O [Example 13, 5-Acetyl-4-[(2-chlorophenyl)amino]-2-ethyl-6-phenylpyridazin-3(2H)-one]
pIC50: 8.03

CCn1nc(-c2ccc(SC)cc2)c(C(C)=O)c(Nc2ccc(C(=O)O)cc2)c1=O [Example 23, 4-({5-Acetyl-2-ethyl-6-[4-(methylthio)phenyl]-3-oxo-2,3-dihydropyridazin-4-yl}amino)benzoic acid]
pIC50: 8.02

CCn1nc(-c2ccc([S+](C)[O-])cc2)c(C(C)=O)c(Nc2ccccc2C)c1=O (centres unmarked) [Example 31, 5-Acetyl-2-ethyl-4-[(2-methylphenyl)amino]-6-[4-(methylsulphinyl)phenyl]pyridazin-3(2H)-one]
pIC50: 7.70

CC(=O)c1c(-c2ccccc2)nn(C)c(=O)c1Nc1cc(F)cc(F)c1 [Example 39, 5-Acetyl-4-[(3,5-difluorophenyl)amino]-2-methyl-6-phenylpyridazin-3(2H)-one]
pIC50: 7.80

CC(=O)c1c(-c2ccccc2)nn(CC2CC2)c(=O)c1Nc1cccc(F)c1 [Example 45, 5-Acetyl-2-(cyclopropylmethyl)-4-[(3-fluorophenyl)amino]-6-phenylpyridazin-3(2H)-one]
pIC50: 8.11

CC(=O)c1c(-c2ccccc2)nn(CC2CC2)c(=O)c1Nc1cccc(Cl)c1 [Example 46, 5-Acetyl-4-[(3-chlorophenyl)amino]-2-(cyclopropylmethyl)-6-phenylpyridazin-3(2H)-one]
pIC50: 8.05

CCn1nc(-c2ccccc2)c(C(C)=O)c(Nc2ccc(C(=O)O)cc2)c1=O [Example 50, 4-[(5-Acetyl-2-ethyl-3-oxo-6-phenyl-2,3-dihydropyridazin-4-yl)amino]benzoic acid]
pIC50: 7.85

CCn1nc(-c2ccccc2)c(C(C)=O)c(Nc2cccc(Cl)c2)c1=O [Example 52, 5-Acetyl-4-[(3-chlorophenyl)amino]-2-ethyl-6-phenylpyridazin-3(2H)-one]
pIC50: 7.92

CCn1nc(-c2ccccc2)c(C(C)=O)c(Nc2cccc(C#N)c2)c1=O [Example 72, 3-[(5-Acetyl-2-ethyl-3-oxo-6-phenyl-2,3-dihydropyridazin-4-yl)amino]benzonitrile]
pIC50: 8.22

CCn1nc(-c2cccc(Cl)c2)c(C(C)=O)c(Nc2ccc(C(=O)O)cc2)c1=O [Example 86, 4-[5-Acetyl-6-(3-chlorophenyl)-2-ethyl-3-oxo-2,3-dihydropyridazin-4-ylamino]benzoic acid]
pIC50: 7.85

CCn1nc(-c2cccc(Cl)c2)c(C(C)=O)c(Nc2cccc(F)c2)c1=O [Example 88, 5-Acetyl-6-(3-chlorophenyl)-2-ethyl-4-[(3-fluorophenyl)amino]pyridazin-3(2H)-one]
pIC50: 8.21

CCn1nc(-c2cccc(F)c2)c(C(C)=O)c(Nc2cccc(F)c2)c1=O [Example 91, 5-Acetyl-2-ethyl-4-[(3-fluorophenyl)amino]-6-(3-fluorophenyl)pyridazin-3(2H)-one]
pIC50: 8.23

CCn1nc(-c2cccc(F)c2)c(C(C)=O)c(Nc2cccc(Cl)c2)c1=O [Example 92, 5-Acetyl-4-[(3-chlorophenyl)amino]-2-ethyl-6-(3-fluorophenyl)pyridazin-3(2H)-one]
pIC50: 8.06

CCn1nc(-c2cccc([N+](=O)[O-])c2)c(C(C)=O)c(Nc2cccc3ccccc23)c1=O [Example 97, 5-Acetyl-2-ethyl-4-(naphthalen-1-ylamino)-6-(3-nitrophenyl)pyridazin-3(2H)-one]
pIC50: 9.30

CC(=O)c1c(-c2ccccc2)nn(CC2CC2)c(=O)c1Nc1cc(F)cc(F)c1 [Example 109, 5-Acetyl-2-cyclopropylmethyl-4-(3,5-difluoro-phenylamino)-6-phenyl-2H-pyridazin-3-one]
pIC50: 9.59

CCn1nc(-c2ccccc2)c(C(=O)CCc2ccccc2)c(Nc2cccc(Cl)c2)c1=O [Example 120, 4-[(3-Chlorophenyl)amino]-2-ethyl-6-phenyl-5-(3-phenylpropanoyl)pyridazin-3(2H)-one]
pIC50: 8.15

CCn1nc(-c2cccc(F)c2)c(C(C)=O)c(Nc2ccc(CO)cc2)c1=O [Example 176, 5-Acetyl-2-ethyl-6-(3-fluorophenyl)-4-{[4-(hydroxymethyl)phenyl]amino}pyridazin-3(2H)-one]
pIC50: 7.72

CCn1nc(-c2ccc(F)cc2)c(C(C)=O)c(Nc2ccc(CO)cc2)c1=O [Example 181, 5-Acetyl-2-ethyl-6-(4-fluorophenyl)-4-{[4-(hydroxymethyl)phenyl]amino}pyridazin-3(2H)-one]
pIC50: 7.60

CCn1nc(-c2ccccc2)c(C(C)=O)c(Nc2ccc(F)c(Cl)c2)c1=O [Example 190, 5-Acetyl-4-[(3-chloro-4-fluorophenyl)amino]-2-ethyl-6-phenylpyridazin-3(2H)-one]
pIC50: 8.03

CCn1nc(-c2ccccc2)c(C(C)=O)c(Nc2ccc(C#N)cc2)c1=O [Example 231, 4-[(5-Acetyl-2-ethyl-3-oxo-6-phenyl-2,3-dihydropyridazin-4-yl)amino]benzonitrile]
pIC50: 7.70

CCn1nc(-c2ccccc2)c(C(C)=O)c(Nc2cccc(C(N)=O)c2)c1=O [Example 232, 3-[(5-Acetyl-2-ethyl-3-oxo-6-phenyl-2,3-dihydropyridazin-4-yl)amino]benzamide]
pIC50: 7.89

CCn1nc(-c2ccccc2)c(C(C)=O)c(Nc2c(F)cc(F)cc2F)c1=O [Example 263, 5-Acetyl-2-ethyl-6-phenyl-4-[(2,4,6-trifluorophenyl)amino]pyridazin-3(2H)-one]
pIC50: 7.82

CCn1nc(-c2ccccc2)c(C(C)=O)c(Nc2cc(F)c(F)c(F)c2)c1=O [Example 264, 5-Acetyl-2-ethyl-6-phenyl-4-[(3,4,5-trifluorophenyl)amino]pyridazin-3(2H)-one]
pIC50: 7.96

CCn1nc(-c2ccccc2)c(C(=O)OCc2ccccc2)c(Nc2cccc(Cl)c2)c1=O [Example 274, Benzyl 5-[(3-chlorophenyl)amino]-1-ethyl-6-oxo-3-phenyl-1,6-dihydropyridazine-4-carboxylate]
pIC50: 8.26
